Data on 8 molecules can be found in ChEMBL document CHEMBL4007415, “Thieno[3,2-b]pyrrole-5-carboxamides as New Reversible Inhibitors of Histone Lysine Demethylase KDM1A/LSD1. Part 1: High-Throughput Screening and Preliminary Exploration” (J Med Chem, 2017).

Activity calls are given as the source filed them. No cut-off for these calls is given here. Some results are limits rather than exact numbers.

Data set [1] has as its target T1, LSD1/CoREST complex (Homo sapiens, UniProt O60341). As to the kind of experiment: Inhibition of recombinant human KDM1A/CoREST complex expressed in Escherichia coli using biotinylated H3K4me1 peptide as substrate preincubated for 10 mins with enzyme followed by substrate addition measured after 1 hr by TR-FRET HTS assay.
The target of data set [2] is T1, LSD1/CoREST complex. As to the kind of experiment: Competitive inhibition of recombinant human KDM1A/CoREST complex expressed in Escherichia coli using H3K4me1 peptide as substrate preincubated for 15 mins followed by substrate addition measured for 12 mins by Lineweaver-Burk plot analysis.
Data set [3] deals with T1, LSD1/CoREST complex.
Description: Inhibition of recombinant human KDM1A/CoREST complex expressed in Escherichia coli using biotinylated H3K4me1 peptide as substrate preincubated for 20 mins measured after 1 hr by TR-FRET assay
Data set [4] deals with T1, LSD1/CoREST complex. This is another data set of the same source.
Description: Inhibition of recombinant human KDM1A/CoREST complex expressed in Escherichia coli using H3K4me1 peptide as substrate preincubated for 15 mins with enzyme followed by substrate addition measured after 12 mins by Amplex Ultra Red reagent based HRP enzyme coupled assay
Data set [5] concerns the target T2, Amine oxidase [flavin-containing] A (Homo sapiens, UniProt P21397).
T2 sequence (P21397 whole entry): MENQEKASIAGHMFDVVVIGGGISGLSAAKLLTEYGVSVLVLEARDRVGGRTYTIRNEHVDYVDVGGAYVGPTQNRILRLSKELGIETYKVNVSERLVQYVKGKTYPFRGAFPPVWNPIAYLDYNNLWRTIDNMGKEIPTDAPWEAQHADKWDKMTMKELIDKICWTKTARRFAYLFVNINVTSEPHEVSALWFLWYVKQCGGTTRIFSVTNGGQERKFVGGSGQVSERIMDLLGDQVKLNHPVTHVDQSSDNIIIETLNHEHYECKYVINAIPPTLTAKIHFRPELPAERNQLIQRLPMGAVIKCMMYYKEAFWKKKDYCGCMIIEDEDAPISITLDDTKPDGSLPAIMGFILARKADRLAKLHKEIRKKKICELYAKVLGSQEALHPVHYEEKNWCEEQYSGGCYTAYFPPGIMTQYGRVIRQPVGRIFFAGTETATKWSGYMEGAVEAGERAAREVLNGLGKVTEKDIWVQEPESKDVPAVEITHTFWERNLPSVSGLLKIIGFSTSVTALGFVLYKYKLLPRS
Description: Inhibition of recombinant human MAOA incubated for 15 mins measured after 30 mins by luminescence-Glo assay

The target of data set [6] is T3, Amine oxidase [flavin-containing] B (Homo sapiens, UniProt P27338).
T3 sequence (P27338 whole entry): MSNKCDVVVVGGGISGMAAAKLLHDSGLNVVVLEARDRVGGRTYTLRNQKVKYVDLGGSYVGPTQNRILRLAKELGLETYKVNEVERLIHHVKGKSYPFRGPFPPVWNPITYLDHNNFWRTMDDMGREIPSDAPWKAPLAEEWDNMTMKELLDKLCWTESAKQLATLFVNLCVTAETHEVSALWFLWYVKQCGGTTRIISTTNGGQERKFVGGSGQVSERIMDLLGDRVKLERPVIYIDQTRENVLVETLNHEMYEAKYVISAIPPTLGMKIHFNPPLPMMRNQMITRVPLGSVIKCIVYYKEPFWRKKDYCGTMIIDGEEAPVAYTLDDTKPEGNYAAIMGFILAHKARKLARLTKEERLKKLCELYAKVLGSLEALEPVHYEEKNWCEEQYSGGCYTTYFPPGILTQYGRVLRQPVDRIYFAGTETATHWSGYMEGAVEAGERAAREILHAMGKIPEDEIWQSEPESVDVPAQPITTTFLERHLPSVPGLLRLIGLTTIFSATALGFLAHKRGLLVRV
Description: Inhibition of recombinant human MAOB incubated for 15 mins measured after 30 mins by luminescence-Glo assay

Data set [7] addresses T4, Lysine-specific histone demethylase 2 (Homo sapiens, UniProt Q8NB78).
T4 sequence (Q8NB78 whole entry): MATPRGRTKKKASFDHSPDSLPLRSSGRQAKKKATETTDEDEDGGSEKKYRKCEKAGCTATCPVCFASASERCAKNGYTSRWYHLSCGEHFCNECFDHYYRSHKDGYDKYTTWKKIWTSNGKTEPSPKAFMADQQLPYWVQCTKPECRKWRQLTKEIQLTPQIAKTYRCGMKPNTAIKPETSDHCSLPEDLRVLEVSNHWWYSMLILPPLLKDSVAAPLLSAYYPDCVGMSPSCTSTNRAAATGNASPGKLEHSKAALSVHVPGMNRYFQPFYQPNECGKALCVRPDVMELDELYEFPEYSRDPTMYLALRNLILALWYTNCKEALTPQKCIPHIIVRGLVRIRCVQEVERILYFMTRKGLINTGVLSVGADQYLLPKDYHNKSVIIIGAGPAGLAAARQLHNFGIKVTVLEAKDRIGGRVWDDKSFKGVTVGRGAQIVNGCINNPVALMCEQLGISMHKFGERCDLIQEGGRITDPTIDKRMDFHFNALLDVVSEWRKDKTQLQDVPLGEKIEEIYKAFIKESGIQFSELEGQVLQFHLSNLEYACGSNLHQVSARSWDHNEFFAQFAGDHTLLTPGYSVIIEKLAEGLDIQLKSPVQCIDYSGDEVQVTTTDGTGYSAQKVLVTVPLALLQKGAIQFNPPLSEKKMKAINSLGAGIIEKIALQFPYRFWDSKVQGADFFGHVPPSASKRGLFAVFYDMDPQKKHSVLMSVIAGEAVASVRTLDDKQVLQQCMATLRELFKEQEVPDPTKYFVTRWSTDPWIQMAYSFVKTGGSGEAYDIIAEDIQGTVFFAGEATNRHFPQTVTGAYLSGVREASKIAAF
Description: Inhibition of KDM1B (unknown origin)

In data set [8] the target is Lysine-specific histone demethylase 1A (Homo sapiens) (UniProt O60341). Kind of data set: Inhibition of KDM1A in human THP1 cells assessed as increase in CD14 mRNA expression level at 1 uM after 24 hrs by qRT-PCR analysis relative to control. Type of data set: cell-based. Background: Real-time PCR tracks product formation cycle by cycle.
For data set [9] the target is unchanged. Kind of data set: Inhibition of KDM1A in human THP1 cells assessed as increase in CD11b mRNA expression level at 1 uM after 24 hrs by qRT-PCR analysis relative to control. Type of data set: cell-based.
Data set [10] concerns THP-1. Kind of data set: Induction of apoptosis in human THP1 cells at 1 uM after 72 hrs by Annexin V-propidium iodide staining based flow cytometry. It counts as functional, cell-based. On the technique in general: In flow cytometry, cells or beads pass a laser one at a time.
Data set [11] relates to THP-1. As to the kind of experiment: Induction of cell death in human THP1 cells at 1 uM after 72 hrs by propidium iodide staining based flow cytometry. Type of data set: functional.
Data set [12] deals with THP-1. As to the kind of experiment: Anticlonogenic activity against human THP1 cells assessed as inhibition of colony formation at 5 uM after 13 days relative to control. The settings on record: THP-1, 312 h. It counts as functional.
The target in data set [13] is Lysine-specific histone demethylase 1A (Homo sapiens) (UniProt O60341). As to the kind of experiment: Inhibition of KDM1A in human THP1 cells assessed as increase in CD86 mRNA expression level at 5 uM after 24 hrs by qRT-PCR analysis relative to control. It counts as cell-based.
Data set [14] has as its system CC(=O)c1ccc(CN2CCC3(CCNCC3)C2)cc1. To be noted: Homo sapiens.
Description: Inhibition of recombinant human KDM1A/CoREST complex expressed in Escherichia coli assessed as Km for substrate using H3K4me1 peptide as substrate preincubated for 15 mins followed by substrate addition measured for 12 mins by Lineweaver-Burk plot analysis
Data set [15] has as its system THP-1. As to the kind of experiment: Induction of apoptosis in human THP1 cells at 0.5 uM after 72 hrs by Annexin V-propidium iodide staining based flow cytometry. It counts as functional, cell-based.
Data set [16] deals with THP-1. Kind of data set: Induction of cell death in human THP1 cells at 0.5 uM after 72 hrs by propidium iodide staining based flow cytometry. It counts as functional.
Data set [17] relates to THP-1. Kind of data set: Anticlonogenic activity against human THP1 cells assessed as inhibition of colony formation at 0.5 uM after 13 days relative to control. It counts as functional. To be noted: THP-1, 312 h.

Consider `CC(=O)c1ccc(CN2CCC3(CCNCC3)C2)cc1`, for which the IC50 is 5 µM on LSD1/CoREST complex [1]; 8.1 µM against LSD1/CoREST complex [3]; 82.4 µM against LSD1/CoREST complex [4]; > 100 µM in data set [5]; 42.5 µM in data set [6]. Further, the Ki on LSD1/CoREST complex [2] stood at 48.4 µM.
As for `Cc1nc(-n2nc(-c3cccs3)cc2NC(=O)COc2ccccc2F)[nH]c(=O)c1C`, the IC50 at LSD1/CoREST complex [1] amounted to 0.76 µM.
As to `COCc1cccc(NC(=O)c2cc3sccc3n2C)c1`, the IC50 in data set [7] was > 100 µM; in data set [5] it was > 100 µM; in [6] it was 56.8 µM.
Take `Cn1c(C(=O)Nc2cccc(COc3ccc(OC4CCNCC4)cc3)c2)cc2sccc21`: the fold change (FC) is 4.79 in [8], 4.61 in [9] and 14.3 in data set [13]. Further, the outcome in the data set on THP-1 [10] and in the data set with THP-1 [11] was inactive. The inhibition at 5 µM in the data set with THP-1 [12] was 29.5%. The concentration for half-maximal inhibition (IC50) against LSD1/CoREST complex [3] was 0.16 to 0.162 µM; in data set [7], > 100 µM; in data set [5], > 100 µM; in [6], 7.16 µM.
As to “LSD1/CoREST complex (Homo sapiens) (from UniProt O60341+Q9UKL0)”, in data set [14], the Michaelis-Menten constant (Km) stood at 1.4 µM.
Regarding `NC1CCC(N[C@@H]2C[C@H]2c2ccccc2)CC1` (stereo not given in full), the result in the data set with THP-1 [15] and with THP-1 [16] was inactive. Moreover, the inhibition at 0.5 µM with THP-1 [17] stood at 70%. Further, the results for the IC50 in data set [7] and in data set [5] were 43.4 µM and 48.3 µM, respectively.
As to `CN1CCC(Oc2ccc(OCc3cccc(NC(=O)c4cc5sccc5n4C)c3)cc2)CC1`, the fold change (FC) in data set [8] was found to be 2.76; in [9], 4.76. Moreover, the outcome in the data set with THP-1 [10] and in the data set with THP-1 [11] was inactive. Further, the IC50 on LSD1/CoREST complex [3] was 0.44 to 0.442 µM; in [7], > 100 µM; in data set [5], > 100 µM; in [6] it was 7.6 µM.
For the molecule `Cc1oc(-c2ccc(Cl)cc2[N+](=O)[O-])cc1C(=O)Nc1ccccc1`, the half-inhibitory concentration (IC50) on LSD1/CoREST complex [1] came out at 3.5 µM.

What is called IC50 is the concentration needed to halve the response being measured. One may read the Ki as the equilibrium dissociation constant of an inhibitor or competing ligand from its target. What is called inhibition is the drop in the measured response relative to a control, in per cent. A word on the Km: it is the concentration of substrate that gives half-maximal velocity.
